Experimental findings from patent US11173146B2, “Selective activators of the intermediate conductance CA2+activated K+ channel KCa3.1 and their methods of use” (The Regents of the University of California, priority 2014, dated 2021) are described below.

Read-outs that look alike come from different tables or passages of the source.

One series addresses T1, hNaV1.4 (Homo sapiens, UniProt P35499).
T1 construct: host or cells: HEK-293
Kind of series: NaV1.4 current inhibition (HEK-293). Format: cell-based. The settings on record: HEK293.

The nature of series [1]: Plasma protein binding by ultrafiltration. Format: in vitro ADME. As to conditions: rat plasma, 10 μM compound. Here is the method:
Rat plasma (500 μl) was spiked with 10 μM of compound in 1% dimethylsulfoxide and the sample loaded onto a Microcon YM-30 Centrifugal Filter (Millipore Corp., Bedford, Mass., USA) and centrifuged at 13,500 g for 30 minutes at room temperature. The retentate was collected by inverting the filter into an Eppendorf tube and spinning at 13,500 g for 15 minutes.

The target of a further series is T2, human KCa2.3 (Homo sapiens, UniProt Q9UGI6).
T2 construct: The cloning of hKCa2.3 (19 CAG repeats) and hKCa3.1 has been previously described (Wulff et al., 2000)
T2 sequence (Q9UGI6 with tags, fused parts or gaps DUP76-80): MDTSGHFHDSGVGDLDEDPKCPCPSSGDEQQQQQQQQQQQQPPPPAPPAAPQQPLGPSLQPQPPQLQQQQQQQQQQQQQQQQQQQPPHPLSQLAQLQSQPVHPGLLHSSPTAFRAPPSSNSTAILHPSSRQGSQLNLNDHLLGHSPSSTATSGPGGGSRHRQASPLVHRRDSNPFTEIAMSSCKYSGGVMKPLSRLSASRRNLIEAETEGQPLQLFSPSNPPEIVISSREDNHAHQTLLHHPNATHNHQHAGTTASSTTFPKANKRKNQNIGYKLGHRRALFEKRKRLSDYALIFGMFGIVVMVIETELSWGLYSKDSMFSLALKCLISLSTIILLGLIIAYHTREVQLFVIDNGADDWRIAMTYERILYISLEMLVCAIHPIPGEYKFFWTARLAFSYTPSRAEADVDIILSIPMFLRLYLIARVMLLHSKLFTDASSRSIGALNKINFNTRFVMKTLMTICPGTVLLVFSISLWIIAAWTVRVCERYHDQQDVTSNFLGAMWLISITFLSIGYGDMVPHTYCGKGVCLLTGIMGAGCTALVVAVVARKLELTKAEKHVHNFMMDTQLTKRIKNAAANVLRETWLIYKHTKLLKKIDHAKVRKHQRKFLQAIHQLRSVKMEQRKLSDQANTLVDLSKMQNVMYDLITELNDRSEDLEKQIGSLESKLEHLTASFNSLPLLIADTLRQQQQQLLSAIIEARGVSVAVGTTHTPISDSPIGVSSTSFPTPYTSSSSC
Kind of series: Manual whole-cell patch-clamp KCa2.3 activation (COS-7). Format: cell-based. An excerpt:
Cells, Cell lines and Clones. […] The cloning of hKCa2.3 (19 CAG repeats) and hKCa3.1 has been previously described (Wulff et al., 2000). The hKCa2.3 clone was later stably expressed in COS-7 cells at Aurora Biosciences Corp., San Diego, Calif. Cell lines stably expressing other mammalian ion channels were gifts from several sources: hKCa1.1 in HEK-293 cells (Andrew Tinker, University College London); hKV2.1 in HEK293 cells (James Trimmer, UC Davis); KV11.1 (HERG) in HEK-293 cells (Craig January, University of Wisconsin, Madison); hNaV1.4 in HEK-293 cells (Frank Lehmann-Horn, University of Ulm, Germany), hNaV1.5 in HEK-293 cells (Christopher Lossin, University of California Davis), and hCaV1.2 in HEK-293 cells (Franz Hofmann, Munich, Germany).
Electrophysiology. Experiments were conducted either manually with an EPC-10 amplifier (HEKA, Lambrecht/Pfalz, Germany) or on a QPatch-16 automated electrophysiology platform (Sophion Biosciences, Denmark). […] Patch pipettes were pulled from soda lime glass (micro-hematocrit tubes, Kimble Chase, Rochester, N.Y.) and had resistances of 2-3 MΩ. […] Free Ca^2+ concentrations were calculated with MaxChelator assuming a temperature of 25° C., a pH of 7.2 and an ionic strength of 160 mM. […] Na^+ aspartate Ringer was used as an external solution (in mM): 160 Na^+ aspartate, 4.5 KCl, 2 CaCl2, 1 MgCl2, 5 HEPES, pH 7.4, 290-310 mOsm. […] Reduction of both peak and tail current by the drug was determined. NaV1.7 currents were recorded with 30 ms pulses from −90 mV to −10 mV every 10 sec with a CsF-based pipette solution and normal Ringer as an external solution. CaV1.2 currents were elicited by 100-ms depolarizing pulses from −80 to 20 mV every 10 sec with a CsCl-based pipette solution and an external solution containing 30 mM BaCl2. Blockade of both Na^+ and Ca^2+ currents was determined as reduction of the current minimum.
For all electrophysiology experiments solutions of benzothiazoles and benzooxazoles were always freshly prepared from 1 mM or 10 mM stock solutions in DMSO during the experiment. The final DMSO concentration never exceeded 1%. For automated assays glass vial inserts (Sophion Biosciences, Denmark) were filled with 350-400 μL of compound solution and placed into the glass insert base plate for use in the QPatch assay right before starting the QPatch.
The compounds synthesized by these methods as well as five commercially available compounds were tested for their KCa2.3 and KCa3.1 activating activity using either manual or automated whole-cell patch-clamp. Our group previously described the establishment of a QPatch assay for KCa3.1 modulators. […] We here made use of this assay and determined EC50 values for KCa3.1 activation using HEK-293 cells stably expressing human KCa3.1. Activities on human KCa2.3 were determined by manual electrophysioiogy since we currently only have KCa2.3 available in COS-7 cells, which are difficult to handle on the QPatch.
In general terms: In patch-clamp work, channel activity is measured electrically.

For the next series, the target named is T3, hNaV1.5 (Homo sapiens, UniProt Q14524).
T3 construct: host or cells: HEK-293
T3 sequence (Q14524 whole entry): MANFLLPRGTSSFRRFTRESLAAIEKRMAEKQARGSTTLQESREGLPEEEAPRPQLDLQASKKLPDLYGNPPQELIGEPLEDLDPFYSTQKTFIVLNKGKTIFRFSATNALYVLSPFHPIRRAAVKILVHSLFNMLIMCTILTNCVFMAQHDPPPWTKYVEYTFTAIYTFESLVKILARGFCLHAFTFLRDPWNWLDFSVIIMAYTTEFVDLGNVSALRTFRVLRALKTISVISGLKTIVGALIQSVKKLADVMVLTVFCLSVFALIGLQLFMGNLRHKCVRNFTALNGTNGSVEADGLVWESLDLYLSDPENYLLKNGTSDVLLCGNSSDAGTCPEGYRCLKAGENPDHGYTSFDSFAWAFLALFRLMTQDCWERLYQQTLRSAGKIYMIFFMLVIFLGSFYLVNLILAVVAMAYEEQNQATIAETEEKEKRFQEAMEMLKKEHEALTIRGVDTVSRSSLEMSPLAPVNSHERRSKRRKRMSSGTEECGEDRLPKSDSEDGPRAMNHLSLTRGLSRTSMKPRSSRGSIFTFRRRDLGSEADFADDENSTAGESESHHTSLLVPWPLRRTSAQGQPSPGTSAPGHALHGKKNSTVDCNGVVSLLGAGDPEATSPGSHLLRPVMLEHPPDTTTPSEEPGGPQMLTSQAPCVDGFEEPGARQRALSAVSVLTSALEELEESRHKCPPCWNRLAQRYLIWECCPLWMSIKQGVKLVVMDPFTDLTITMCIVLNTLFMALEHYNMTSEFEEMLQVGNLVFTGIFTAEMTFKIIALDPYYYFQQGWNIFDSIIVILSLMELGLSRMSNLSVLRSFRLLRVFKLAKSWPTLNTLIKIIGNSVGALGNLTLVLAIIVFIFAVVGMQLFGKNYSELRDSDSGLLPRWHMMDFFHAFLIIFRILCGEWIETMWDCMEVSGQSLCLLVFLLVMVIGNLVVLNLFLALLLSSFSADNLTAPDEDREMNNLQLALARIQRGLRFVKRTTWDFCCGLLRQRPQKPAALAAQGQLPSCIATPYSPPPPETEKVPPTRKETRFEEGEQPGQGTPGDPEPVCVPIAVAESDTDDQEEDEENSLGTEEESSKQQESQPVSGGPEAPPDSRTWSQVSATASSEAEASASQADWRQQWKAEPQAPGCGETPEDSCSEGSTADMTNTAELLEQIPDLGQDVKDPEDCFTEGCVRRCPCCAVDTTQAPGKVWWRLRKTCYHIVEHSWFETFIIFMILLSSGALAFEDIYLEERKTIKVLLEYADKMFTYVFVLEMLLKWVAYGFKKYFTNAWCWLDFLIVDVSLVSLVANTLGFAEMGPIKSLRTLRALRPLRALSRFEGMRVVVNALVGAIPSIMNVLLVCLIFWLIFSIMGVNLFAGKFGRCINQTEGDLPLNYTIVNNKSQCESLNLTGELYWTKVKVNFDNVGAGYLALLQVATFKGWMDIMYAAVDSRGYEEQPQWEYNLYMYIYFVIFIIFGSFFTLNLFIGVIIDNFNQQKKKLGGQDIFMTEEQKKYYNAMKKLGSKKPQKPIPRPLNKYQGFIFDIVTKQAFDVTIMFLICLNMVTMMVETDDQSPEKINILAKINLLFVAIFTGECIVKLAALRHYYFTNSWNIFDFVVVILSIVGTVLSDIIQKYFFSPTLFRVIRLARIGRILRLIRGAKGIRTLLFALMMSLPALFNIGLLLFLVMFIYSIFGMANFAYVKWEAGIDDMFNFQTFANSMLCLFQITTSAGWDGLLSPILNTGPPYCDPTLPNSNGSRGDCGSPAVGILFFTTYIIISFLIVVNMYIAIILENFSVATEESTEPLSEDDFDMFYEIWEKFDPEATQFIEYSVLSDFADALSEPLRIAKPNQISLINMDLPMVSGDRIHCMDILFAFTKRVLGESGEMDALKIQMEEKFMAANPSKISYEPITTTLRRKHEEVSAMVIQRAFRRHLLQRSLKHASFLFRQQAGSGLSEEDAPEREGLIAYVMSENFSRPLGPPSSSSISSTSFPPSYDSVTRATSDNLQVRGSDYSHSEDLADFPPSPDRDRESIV
Kind of series: NaV1.5 current inhibition (HEK-293). Format: cell-based. As to conditions: HEK293.

What is called inhibition is the relative decrease from the control value, in per cent. By fraction unbound is commonly meant the share of the substance not bound to proteins or other matrix. By EC50 is commonly meant the concentration at which the effect is half-maximal.

T1 sequence (P35499 whole entry): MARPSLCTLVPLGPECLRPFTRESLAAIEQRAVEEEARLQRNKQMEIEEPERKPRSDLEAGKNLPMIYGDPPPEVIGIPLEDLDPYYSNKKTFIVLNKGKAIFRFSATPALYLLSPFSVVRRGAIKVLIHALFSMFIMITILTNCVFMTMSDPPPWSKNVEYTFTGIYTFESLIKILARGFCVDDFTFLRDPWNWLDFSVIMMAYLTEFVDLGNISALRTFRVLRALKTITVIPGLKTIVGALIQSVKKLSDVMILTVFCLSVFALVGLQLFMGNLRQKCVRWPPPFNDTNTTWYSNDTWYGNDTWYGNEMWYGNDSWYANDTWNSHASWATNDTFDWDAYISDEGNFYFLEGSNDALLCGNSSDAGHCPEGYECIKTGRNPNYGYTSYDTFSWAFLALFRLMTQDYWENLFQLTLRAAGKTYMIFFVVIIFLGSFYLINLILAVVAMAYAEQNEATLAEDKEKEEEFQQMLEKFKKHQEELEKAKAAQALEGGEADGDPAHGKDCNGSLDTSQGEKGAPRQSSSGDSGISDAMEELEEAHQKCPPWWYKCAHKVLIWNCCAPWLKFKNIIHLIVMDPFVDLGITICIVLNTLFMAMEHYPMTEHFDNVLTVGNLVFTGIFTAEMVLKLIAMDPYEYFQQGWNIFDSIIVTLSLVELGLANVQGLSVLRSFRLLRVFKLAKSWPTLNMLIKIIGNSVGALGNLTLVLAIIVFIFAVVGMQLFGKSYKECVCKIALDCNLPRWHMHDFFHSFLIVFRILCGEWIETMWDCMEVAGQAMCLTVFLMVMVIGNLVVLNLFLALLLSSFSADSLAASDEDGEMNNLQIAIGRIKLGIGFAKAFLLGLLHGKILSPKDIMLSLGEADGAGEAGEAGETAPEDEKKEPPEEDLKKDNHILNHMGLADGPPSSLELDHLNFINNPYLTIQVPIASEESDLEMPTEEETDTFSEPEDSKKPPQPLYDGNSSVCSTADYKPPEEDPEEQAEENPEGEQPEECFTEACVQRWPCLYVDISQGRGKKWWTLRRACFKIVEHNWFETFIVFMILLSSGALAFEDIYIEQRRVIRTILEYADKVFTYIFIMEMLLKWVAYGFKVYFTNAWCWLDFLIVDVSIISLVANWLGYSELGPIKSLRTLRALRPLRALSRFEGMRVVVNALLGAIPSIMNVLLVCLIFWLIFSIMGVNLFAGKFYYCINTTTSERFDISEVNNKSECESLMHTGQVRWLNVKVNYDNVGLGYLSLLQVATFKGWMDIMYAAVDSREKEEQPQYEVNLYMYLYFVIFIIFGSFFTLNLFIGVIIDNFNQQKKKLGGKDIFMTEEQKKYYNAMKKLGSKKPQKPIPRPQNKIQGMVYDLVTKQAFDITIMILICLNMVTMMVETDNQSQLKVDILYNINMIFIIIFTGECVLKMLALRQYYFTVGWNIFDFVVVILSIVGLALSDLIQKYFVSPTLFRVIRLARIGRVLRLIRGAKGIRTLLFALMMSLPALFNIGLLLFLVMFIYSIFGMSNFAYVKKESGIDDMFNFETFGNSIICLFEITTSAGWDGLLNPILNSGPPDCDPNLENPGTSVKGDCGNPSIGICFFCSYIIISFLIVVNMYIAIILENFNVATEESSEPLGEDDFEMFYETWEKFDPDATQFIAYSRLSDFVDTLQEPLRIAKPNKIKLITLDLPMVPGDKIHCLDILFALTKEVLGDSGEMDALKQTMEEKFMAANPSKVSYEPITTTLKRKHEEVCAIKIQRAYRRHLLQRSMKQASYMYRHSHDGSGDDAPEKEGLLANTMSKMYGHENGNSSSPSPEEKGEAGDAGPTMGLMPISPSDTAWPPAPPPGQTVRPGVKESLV

For the compound `Cc1cc2sc(N)nc2c2ccccc12` [SKA-111, 5-methylnaphtho[1,2-d]thiazol-2-amine], the inhibition at 25 µM turned out to be 33.4 ± 10.5% against hNaV1.4 (at 25 μM) and 39.9 ± 11.1% on hNaV1.5 (at 25 μM). In series [1], the unbound share (fraction unbound) at 30 min, 10 μM was 0.41. Also, at human KCa2.3 (read-out: EC50 for KCa2.3 activation; 250 nM free Ca2+), the EC50 was 13.7 ± 6.9 µM.

On to `Cc1cc2nc(N)oc2c2ccccc12` [SKA-121, 5-Methylnaphtho[2,1-d]oxazol-2-amine], for which the results for the inhibition at 50 µM against hNaV1.4 (at 50 μM) and at hNaV1.5 (at 50 μM) were 25.7 ± 1.3% and 32.1 ± 11.1%, respectively. This compound also gave an unbound share (fraction unbound) at 30 min, 10 μM in series [1] of 0.19. Further, the 50% effective concentration (EC50) on human KCa2.3 (250 nM free Ca2+; read-out: EC50 for KCa2.3 activation) turned out to be 4.4 ± 2.3 µM; on human KCa2.3 (Table 1; 250 nM free Ca2+; read-out: KCa2.3 EC50) it was 4.4 ± 2.6 µM. Besides, on human KCa2.3 (FIG. 4 legend), the “Hill coefficient nH, KCa2.3 concentration-response curve” value was 1.6.
